The values that follow come from patent US20030005484A1, “Microbiocidal and pesticidal aromatic aldehydes” (ProGuard, Inc., priority 1994, published 2003).

Broadly, the mortality is the percentage killed.

For series [1], the system named is Fusarium subglutinans f. sp. pini. Kind of series: radial growth on amended potato dextrose agar. Particulars: controls: Saponin alone, 5 ppm Benomyl, Glutaraldehyde 2%; five days at 18° C. It counts as cell-based. The procedure: A double-blind bioassay was undertaken using cinnamic aldehyde in various concentrations and formulations. The bioassay was based on inhibition of radial growth of Fusarium subglutinans f. sp. pini. Eight ml of formulation (concentration unknown) was pipetted into 200 ml of molten 2% potato dextrose agar (PDA) and the mixture was dispersed into five plastic petri dishes (25 ml dish). Each of four plates was inoculated at the center with an agar plug transferred from a growing PDA culture of Fusarium subglutinans f. sp. pini (isolate SL-1, UCB), while the fifth plate was left noninoculated as a control. These steps were repeated for each formulation of the cinnamic aldehyde. As a positive control, four PDA plates amended with 5 ppm benomyl were inoculated. as described; the negative control was four unamended PDA plates that were inoculated with F. subglutinans. All inoculated and non-inoculated plates were incubated at 18° C. for five days, after which colony diameters were measured.

The subject of the next series is powdery mildew. Put plainly: powdery mildew on roses, disease rating / MPDC after foliar spray. It counts as in vivo, Sphaerotheca pannosa. Particulars: for Mean % Disease Control, rose powdery mildew: no aldehyde: additive alone (T80 10 g, NaHCO3 80 g) or Benomyl per manufacturer instructions, four days. The procedure: Each formulation is evaluated for its effect on specific pests and/or plant host using any of the compounds of formula (1) as well as other components of the formulation such as Tween 80 and/or sodium bicarbonate, with the combination and effective amount of each component adapted for a particular application to minimize toxicity while maintaining or increasing the antipathogenic effect of the formulation. The effective amount of each component may be determined by systematically varying the amount of that component in a test formulation, treating a plant of interest with the test formulation, and monitoring the level of pest infestation compared to an untreated control plant. An effective amount of a test component is identified as the amount that controls the growth of the pathogen on the plant host, thus reducing the disease rating of the plant. The mean percentage disease […] (MPDC) can be calculated for each particular application. MPDC is defined by the formula: [formula] Eight cultivars of rose were tested to investigate the effect of a cinnamic aldehyde/NaHCO3 formulation on rust and spores. The cultivars used included Moss unnamed (Moss), […], Rosette Delize (Hybrid Tea), Rosa Rugosa Rubra (Rugosa), Abel Morrison (Hybrid perpetual), John Laing, Betty Prior, and Rose de Roi. […] The Hybrid Tea and Hybrid perpetual were rated 3 and the Rugosa was rated 1. […] Control plants received no treatment. […] Moreover, the treatment appeared to have induced systemic resistance. […] Plants were an average of 0.86 m apart. […] Controls were untreated plants. […] Weekly reviews were made of the various plants. […] of infected rose in dedicated experimental rose gardens were used. Four Mrs. John Laing (Hybrid perpetual) and two Marchionese of Londonderry (Hybrid perpetual) rose plants were treated with one of two formulations of coniferyl aldehyde. […] The first two Mrs. […] Mrs. […] Both Marchionese of Londonderry plants (P5 and P6) were rated 5 for powdery mildew and rust after Paulus and Nelson (supra). Two treatment formulae were used for this trial. […] Control plants were sprayed with water alone. The change in the rating from pre-treatment to post-treatment was calculated as the mean percentage of disease control (MPDC) as described herein. A three treatment experiment with cinnamic aldehyde formula, coniferyl aldehyde formula and combined cinnamic and coniferyl aldehyde formula was carried out on field grown roses known to be susceptible to powdery mildew. The plants were blocked by variety before fungicide treatments and were randomized as to the plants. Two varieties were used in each of the three experiments described below. […] In experiment 3 Comte de Chambord (Portland) and Madame Pierre Oger (Bourbon) were used. In Experiment 1, the effect of cinnamic aldehyde alone and in combination with Tween 80 and/or NaHCO3 component was evaluated in experiment 2 the effect of coniferyl aldehyde alone and in combination with Tween 80 and/or NaHCO3 was evaluated and in experiment 3 a combination of cinnamic aldehyde and coniferyl aldehyde with Tween 80 and/or NaHCo3 was evaluated. […] See Table 3 for the treatment protocol; formula 1 was used for these experiments. […] Plants were evaluated using the Paulus/Nelson scale just prior to and four days after treatment. […] Moreover, cinnamic aldehyde, coniferyl aldehyde, Tween 80 and NaHCO3 are used in the food industry and there is likely to be little toxicological risk to the consumer or handler from any horticultural or food crop sprayed in this way. Similarly, as these chemicals leave no toxic residue, there is little chance of any detrimental effect on the wider environment, and their use is likely to be compatible with current biological control methods such as beneficial insects and/or microorganisms.

In a further series the test system is grape phylloxera eggs. Kind of series: whole plant or invertebrate. To be noted: for nymphs that died in the shell (DIS): controls: Carbofuran 10 ppm, malathion 250 ppm, 7 days; for approximate egg hatch LD 50: egg tests with CNMA analogs. The procedure: Mixed age groups of 60 grape phylloxera eggs were established on filter paper (Whatman #1, 5.5 cm circles) in 50×9 mm sealed plastic petri dishes treated with 100 μl of solution. A selected concentration of a test formulation of 400 μl was added to the filter disk and the dish closed with the petri dish cover and placed in a plastic container box. After 6 hours, the box was placed in an environmental chamber at 24° C. in the dark. The eggs were placed in groups of 10. After one week, the percentage of hatch is determined. In an initial test, doses from 0.1 to 25,000 ppm cinnamic aldehyde in 6% NaHCO3 and 2% Tween 80 were evaluated with a single group of eggs at each dosage. Three replicates of the experiment were performed. […] LD50 and LD95 were determined by probit analysis.
Grape phylloxera eggs were treated with cinnamaldehyde (CNMA) in a 6% NaHCO3, 2% Tween-80 formulation in a laboratory bioassay. Mortality of the eggs was indicated by failure of the egg shell to split. […] Leaves of one-year-old greenhouse Vitis vinifera cultivar Merlot vines heavily infested with grape phylloxera were sprayed to run-off with a CNMA treatment using the same formulation. […] Roots taken from plants 1, 2 and 5 weeks after CNMA or other treatments were placed in Petri dish bioassays and infested with untreated phylloxera eggs.
Eggs of various age classes were placed on Whatman #1 filter paper moistened with enough treatment solution to form a meniscus about halfway up the sides of the eggs. The pieces of filter paper with eggs were maintained in sealed plastic Petri dishes at […] until they were 7 days old and then hatched individuals were counted. Hatch was considered successful if the […]

Series [2] concerns root-knot nematode, Meloidogyne javanica. It counts as in vivo. Particulars: controls: saponin alone (1:60 dilution of 10 brix concentrate; compared with 100% mortality), Ethanol (95%). The procedure:
In a double blind study, concentrations of the subject aldehyde compounds were tested for activity against root-knot nematode, Meloidogyne javanica. Nematodes were put in direct contact with the chemical and at 24 hour intervals, mortality was assessed both visually and by probing. Meloidogyne javanica were produced using hydroponics. The nematodes were harvested and used within 24 hours.
Approximately 100 nematodes in 0.07 mls of water were pipetted into a syracuse dish (Fisher) and 1 ml of test formulation was immediately pipetted into each dish. The dishes were then placed into plastic bags to retain moisture and prevent evaporation. Four syracuse dishes were used for each solution test formulation. […] Moving nematodes were counted as living.

In series [3] the test system is silverleaf white fly, Bemisia argentifolii. Kind of series: silver leaf white fly Petri dish bioassay. To be noted: for Silver Leaf White Fly Mortality (Percent): no aldehyde: T80 (10 g), NaHCO3, T80(2%) + NaHCO3 (6%) or Malathion (250 ppm) alone. As to the method: (§1) Activity of cinnamic aldehyde and/or coniferyl aldehyde against black bean aphid, Tetranychus urticae, and silverleaf white fly, Bemisia argentifolii was determined as follows:
Petri dishes (60 mm) were treated with cinnamic aldehyde at 10-25,000 ppm in 2% Tween 80 and 6% NaHCO3 dissolved in water, and allowed to air dry. Twenty adult silver leaf white fly were put in each dish, (replicate 10 times). The mortality after three hours in contact with a treated plate, was compared to that of silver leaf white fly in petri dishes treated only with diluent. Malathion at 250 ppm was used as a positive control.

A further series relates to phylloxera-biotype A. Put plainly: greenhouse Merlot vines infested with phylloxera, leaf spray, disease rating of roots. It counts as in vivo, Daktulosphaira vitifoliae. To be noted: Experiment 2, 200 ppm Malathion leaf treatment. From the text:
For greenhouse tests, one year old potted V. vinifera cultivar merlot plants were used that had been obtained from Foundation Plant Material Service, University of California, Davis. The plants were potted in 10 cm diameter pots and were infested with phylloxera 5 weeks prior to treatment. At the time of spraying with a treatment solution, plant pots were placed in a plastic bag so that chemical runoff from the leaf sprays would not drip into the soil. The plants were sprayed to runoff with a household 1 liter-capacity plastic spray bottle. Plants were allowed to air dry outside and then replaced in the greenhouse. At intervals thereafter, the roots were separated from the potting mix and total phylloxera population estimated.

The test system of another series is grape phylloxera. Put plainly: grape phylloxera adult and nymphal mortality, root dip. It counts as in vivo, Daktulosphaira vitifoliae. Particulars: Daktulosphaira vitifoliae, 120 h; positive control 250 ppm malathion in water; root dip; 5 days; read-out: mortality of adults and nymphs. The procedure: Approximately twenty four eggs of phylloxera were allowed to develop for up to 30 days on standard excised grape roots. At around 30 days, some of the insects were nymphs while others were adults. New eggs were removed during the process. Insect infected roots were submerged into a test formula for 6 seconds then set aside to dry in the air. The percentage of live insects, as defined by growth, oviposition or limb movement, was determined after 5 days. An insect was considered dead if it abandoned its feed site.
In an initial test, doses of 20,000 ppm cinnamic aldehyde in water (i.e., 2% cinnamic aldehyde) with various additives were evaluated. Cinnamic aldehyde without any additives produced 83.3% mortality. With-1% Tween 80 added, 91.7% mortality was seen. With 6% NaHCO3 added to a solution of 2% cinnamic aldehyde, 91.7% mortality was seen. With 1% Tween 80 and 6% NaHCO3 added to a solution of 2% cinnamic aldehyde, 100% mortality was seen. Water with no additives produced no mortality, while a positive control solution of 250 ppm malathion in water gave 100% mortality.
For nymph and adult tests, eggs were placed on excised root pieces similar to those used for rearing purposes and these were sealed in Petri dishes and held at 24° C. for 18-25 days to allow insects to hatch, initiate feeding sites and develop. At about this time about half the population was in the adult stage. Prior to testing, the population on each root was determined as well as the developmental stage of each insect. Eggs were removed. These root pieces were then dipped for 5 sec into test solutions and allowed to air dry before they were returned to Petri dishes, sealed and placed back in the temperature chamber at 24° C. Mortality was determined after 5 days. Insects were considered dead if they appeared black or desiccated and if they had not developed since the pre-treatment reading and had laid no or few new eggs.

The subject of series [4] is black bean aphid, Tetranychus urticae. Put plainly: aphid Petri dish bioassay. Particulars: malathion 250 ppm, positive control; three hours contact. The procedure:
as §1
Petri dishes (60 mm) were treated with cinnamic aldehyde at 10-25,000 ppm in 2% Tween 80 and 6% NaHCO3 dissolved in water, and the dishes allowed to air dry. Twenty adult aphids (Tetranychus urticae) were put in each dish, (replicate 10 times). The mortality after three hours in contact with a treated plate was compared to that of aphids in petri dishes treated only with diluent. Malathion (250 ppm) was used as a positive control.

“And” between values parts separate entries of the source, which are not always exact repeats. Equal values may be shown once.

With `CCCCNC(=O)n1c(NC(=O)OC)nc2ccccc21` [Benomyl, reference compound], the “Colony diameter (cm)” value in series [1] was 0.000 cm and 0 cm. Also, the “Mean % Disease Control, rose powdery mildew” value in the series with powdery mildew amounted to 79%. Also, the Mean disease control entry in the series on powdery mildew (sprayed roses, parallel experiments) is “approximately 80%”.
With `CNC(=O)Oc1cccc2c1OC(C)(C)C2` [Carbofuran, reference compound], the “nymphs that died in the shell (DIS)” value in the series with grape phylloxera eggs is given as 100%.
As for `COC(=O)C=Cc1ccccc1` [Cinnamyl acid methyl ester], in the series on grape phylloxera eggs, the “approximate egg hatch LD 50” value is > 320 ppm and < 560 ppm.
Still for that read-out and setting: to `OCC=Cc1ccccc1` [Cinnamyl alcohol] belongs > 320 ppm and < 560 ppm.
For `CCO` [Ethanol, reference compound], the “mortality at 24 hours” value in series [2] is given as “killed all nematodes”.
On to `O=CCCCC=O` [Glutaraldehyde, reference compound], for which, in series [1], the “Colony diameter (cm)” value was 3.663 cm and 3.66 cm.
For `O=C([O-])O.[Na+]` [NaHCO3], the “Mean % Disease Control, rose powdery mildew” value in the series with powdery mildew turned out to be 44%. Further, the “Silver Leaf White Fly Mortality (Percent)” value in series [3] came out at 22.9%.
For `CCCCCCCC/C=C\CCCCCCCC(=O)OCCOCC(OCCO)C1OCC(OCCO)C1OCCO` (stereo not shown) [T80, Tween 80], in that order: 0% and 14.5%.
On to `CCOC(=O)CC(SP(=S)(OC)OC)C(=O)OCC` (stereo not shown) [malathion, reference compound], for which the “Average disease rating (0-4)” value with phylloxera-biotype A (1 day post treatment) is listed as 4 (3); in the series with phylloxera-biotype A (2 days post treatment) it was 2.3(3); in the series on phylloxera-biotype A (7 days post treatment), 0(2). The mortality at 250 ppm in the series with grape phylloxera is 100%. The “nymphs that died in the shell (DIS)” value with grape phylloxera eggs stood at 100%. In addition, in series [3] (malathion 250 ppm, positive control, three hours contact), the “silver leaf white fly killed” value was found to be 100%. Besides, the aphids killed in series [4] is 100%.
